Source: patent publication US10138265B2, “Uridine nucleoside derivatives, compositions and methods of use” (Tufts University, priority 2013, dated 2018)
Read-outs that look alike come from different tables or passages of the source. Each block holds one compound with its values, some of them ahead of it.

Experiments:
P2Y6 receptor [1] = target: T1, P2Y6 receptor (Homo sapiens, UniProt Q15077); test: Activation of P2Y6 receptor: receptor induced Ca2+ changes with fluo-4 in 1321N1 astrocytoma cells; assay type: cell-based; parameters: expressed in transfected cells; host or cells: 1321N1 human astrocytoma cells
Procedure: (§1) Synthetic ligands were tested for activation of P2Y6 receptor by measuring receptor induced Ca^2+ changes with the fluorescent Ca^2+ indicator fluo-4. 1321N1 human astrocytoma cell lines either expressing P2Y2, P2Y4 or P2Y6 receptors were plated into 24-well plates. Two days after plating, fluorometric measurements were made and responses of cells to a serial dilution of ligands were determined P2Y6 receptor mediated Ca^2+ fluorescent change was determined by normalized accumulation of fluorescent change of 3 timepoints after ligand administration subtracted by value from ACSF control. Changes in fluorescent intensity were plotted corresponding to ligand concention in GraphPad. Dose-response curve and EC50 for each ligand was estimated using nonlinear curve fit and Sigmoidal dose-response analysis. […]
(§2) Synthetic ligands were tested for activation of P2Y6 receptor by measuring receptor induced Ca^2+ changes with the fluorescent Ca^2+ indicator fluo-4, and results are shown in FIG. 10(A)-(K). […] Two days after plating, fluorometric measurements were made and responses of cells to a serial dilution of ligands were determined P2Y6 receptor mediated Ca^2+ fluorescent change was determined by normalized accumulation of fluorescent change of 3 timepoints after ligand administration subtracted by value from ACSF control. […]

P2Y2 receptor = target: T2, P2Y2 receptor (Homo sapiens, UniProt P41231); test: Ca2+ mobilizing effect (fluo-4) in 1321N1 astrocytoma cells expressing P2Y2; assay type: cell-based; conditions: 1321N1 human astrocytoma cells expressing P2Y2
T2 construct: expressed in transfected cells; host or cells: 1321N1 human astrocytoma cells
Procedure: as §1, §2

P2Y4 receptor = target: T3, P2Y4 receptor (Homo sapiens, UniProt P51582); test: Ca2+ mobilizing effect (fluo-4) in 1321N1 astrocytoma cells expressing P2Y4; assay type: cell-based; conditions: 1321N1 human astrocytoma cells expressing P2Y4
T3 construct: expressed in transfected cells; host or cells: 1321N1 human astrocytoma cells
Procedure: as §1, §2

PSAPP mice [2] = test: Contextual fear conditioning test (freezing behavior); assay type: in vivo, mouse
Procedure: On day one, animals were trained in a fear conditioning apparatus for a total of 7 minutes with a two-pairing paradigm of cue and mild foot shock (a 30-s acoustic-conditioned stimulus, 80 dB; a 2-s shock stimulus, 0.5 mA). To evaluate contextual fear learning, the animals were returned to the training context 24 hours post-training, and freezing behavior was scored for 5 minutes. Freezing behavior was monitored by MotorMonitor (Hamilton Kinder) and scored every 5 seconds.
In this study, the fear conditioning associative learning paradigm was used as a rapid cognition assay for PSAPP mice. This study allowed us to probe cognitive function with a single training day followed in 24 hours by tests for contextual and cued fear learning. Contextual fear learning is dependent upon a brain area that has been implicated as a locus for cognitive decline in AD: the hippocampus. Two pairings of CS—US for fear conditioning were followed 24 hours later by testing for contextual and cued fear learning. Previous studies have reported that PSAPP animals appear to have a selective hippocampus-dependent impairment in associative learning following two pairings of conditioned stimuli for fear conditioning.
This represents a decrease in the cognitive impairment observed in the untreated mice.

PSAPP mice [3] = test: Tolerability of a higher dose in the plaque burden study; assay type: in vivo, mouse; conditions: 1000× increase in dose
Procedure: (§3) PSB0474 was systemically administered to PSAPP mice via intraperitoneal injection for 2, 4 and 6 consecutive days. In one group, prior to evaluation and following to administration for 6 consecutive days, treatment was suspended for two weeks (6+2 weeks group). Brains were then fixed and plaque load was evaluated by immunostaining with the amyloid beta specific antibodies: β1-40 and β1-42. Representative images of plaque load in cortex and hippocampus from animals that received injections of PSB0474 according to the foregoing injection schedules are shown in FIG. 5(A)-(D). […] Whereas, when administration of PSB0474 was stopped for 2 weeks following six consecutive days of treatment (denoted as the 6+2 weeks group), β1-40 staining rebounded; although to a level lower than observed in mice treated with saline as a vehicle control. FIGS. 6A and 6B depict the reduction in plaque load (%) the cortex and hippocampus, respectively, in PSAPP mice after treatment with 3-phenacyl-UDP for 2, 4, or 6 consecutive days, as assayed by staining with the β1-40 antibody. FIGS. 6C-6F depict data obtained following administration of different dosages of PSB0474.

P2Y6 receptor [4] = target: T1, P2Y6 receptor; conditions: cited from earlier work
PSAPP mice [5] = test: Postmortem immunohistochemistry of plaque load in cortex and hippocampus; assay type: in vivo, mouse
Procedure: Mice were perfused transcardially with 4% paraformaldehyde and 40 μm Coronal sections were collected. Sections were sequentially incubated in 0.3% H2O2 for 10 minutes, blocking solution for 2 hrs, blocking solution containing the primary antibody (rabbit anti-beta 1-42; rabbit anti-beta1-40, from Chemicon International and rat anti-CD45) for 48 hours at 4° C., and blocking solution containing biotinylated antibody or fluorescently-labeled antibody for 2 hours at room temperature. Sections were visualized in a bright field microscope or a confocal microscope, and the optical density was obtained using MetaMorph software.
After repeated imaging, brains were fixed and subjected to postmortem immunohistochemistry with amyloid beta specific antibodies β1-40 and β1-42 to evaluate the plaque load (area occupied by immunostaining of plaque) in cortex and hippocampus.
as §3
To generate these graphs showing plaque load, mice were euthanized, brain sections cut and antibodies directed against Aβ42 were used to disclose Aβ plaques. Images were acquired digitally and an algorithm was applied to threshold the image so that plaques were isolated from the background. The algorithm then calculated the percent area of the field of view occupied by the plaques.
Brain samples were collected for Abeta analysis with immunostaining. Brains samples were collected after transcardial perfusion with phosphate buffer and 4% paraformaldehyde. Floating brain sections (40 µm) were collected using a microtome. Immunostaining for Aβ40 and Aβ42 were performed according to previously established protocol. Images with DAB staining were collected with brightfield microscopy and analyzed with ImageJ Macro. All data analysis and statistics were performed in GraphPad Prism 6.0.

PSAPP mice [6] = test: as above; assay type: in vivo, mouse; remark: listed apart in the source
PSAPP mice [7] = test: Hippocampal long-term potentiation (LTP) recording; assay type: in vivo, mouse; conditions: acute treatment
Procedure: Hippocampal slices (350 μm thick) were prepared from 6-month-old PSAPP mice. Baseline responses were obtained every 10 seconds and Input-output (I/O) curves, paired-pulse modification and LTP were successively measured. The stimulation intensity was set to a level that gives a value of 30% of the maximum obtained. LTP were induced by high frequency stimulation (HFS, 100 pulses at 100 Hz, four times) or by theta-burst stimulation (TBS, 10 bursts at 5 Hz, repeated 10 times in 15 s intervals).
Accumulated evidence has shown that amyloid peptides naturally secreted or isolated from Alzheimer's brains impair synaptic plasticity, especially hippocampal long-term potentiation (Walsh et al., 2002). Therefore, we further performed LTP recordings in PASPP mice and investigated whether P2Y6 receptor-mediated plaque clearance affects synaptic plasticity. […] First, it was observed that LTP at the schaffer collateral synapse within the CA1 region was depressed in PSAPP mice, as compared with littermates (FIG. 8(A)).

PSAPP mice [8] = test: Two-photon in vivo imaging of methoxyX04 labeled amyloid plaques in barrel cortex; parameters: species or system mouse; conditions: acute i.c.v. treatment
Source text: In this study, PSAPP mice were anesthetized using isoflurane and a thin-skull preparation was used to minimize the surface damage. Amyloid plaques were visualized with methoxyX04 labeling and blood plasma was labeled with Rhodamine dextran to facilitate re-localization of the same imaging area. Stack images were obtained using a two-photon system (Prairie Technologies) with excitation at 850 nm. The emission was detected by external photomultiplier tubes (525/70; DLCP 575; 607/45 nm). Animals were anesthetized and immobilized in a stereotaxic frame. For each injection, 1 μl of 10 mM UDP or other suitable compounds in artificial cerebrospinal fluid (ACSF) as the vehicle were injected intraventricularly using the following coordinates: AP 0.2 mm, ML 1 mm, and DV 2.2 mm. To evaluate the effect of UDP on plaque burden, two-photon microscopy was used to assess the amyloid plaques in the barrel cortex in living PSAPP mice. Amyloid plaques were stained by systemically administered methoxy-[…]. One day prior to imaging, PSAPP mice were injected with methoxyX04 to label the amyloid plaques. On the imaging day, to facilitate the re-location of the same imaging area, blood plasma was labeled with Rhodamine dextran. Images were obtained from the same start- and end-point to ensure the same image volume. The results were shown in a maximum intensity projection of a fluorescent stack containing 45 planes. Representative images of methoxyX04 labeled amyloid plaques and angiopathy on days 1 are shown in FIG. 1(A)-(C) Immediately after imaging, animals were injected with ACSF or UDP intracerebroventricularly (i.c.v.) and allowed to recover. On day 4, animals were subjected to a second period of imaging of the same regions studied on day 1 and the results are shown in FIG. 1(D)-(F). The similar pattern of angiopathy (shown by open arrows) indicated the same imaging area.

[9] = Half-life in human whole blood; assay type: in vitro ADME
Oral bioavailability = conditions: in vivo
[10] = barrel cortex, day 4 vs day 1, P<0.01
[11] = 10 ug/kg i.p. once per day for 7 days, PS1/APP mice, cortex

T1 sequence (Q15077 whole entry): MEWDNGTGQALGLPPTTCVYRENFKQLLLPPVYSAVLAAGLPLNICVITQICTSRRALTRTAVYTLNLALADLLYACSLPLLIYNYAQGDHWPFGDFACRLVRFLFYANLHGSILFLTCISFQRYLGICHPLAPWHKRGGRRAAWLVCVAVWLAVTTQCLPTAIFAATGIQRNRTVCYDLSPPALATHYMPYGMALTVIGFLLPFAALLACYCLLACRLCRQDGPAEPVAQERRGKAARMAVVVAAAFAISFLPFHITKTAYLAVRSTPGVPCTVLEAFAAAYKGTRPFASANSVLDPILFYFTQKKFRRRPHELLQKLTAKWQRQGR
T3 sequence (P51582 whole entry): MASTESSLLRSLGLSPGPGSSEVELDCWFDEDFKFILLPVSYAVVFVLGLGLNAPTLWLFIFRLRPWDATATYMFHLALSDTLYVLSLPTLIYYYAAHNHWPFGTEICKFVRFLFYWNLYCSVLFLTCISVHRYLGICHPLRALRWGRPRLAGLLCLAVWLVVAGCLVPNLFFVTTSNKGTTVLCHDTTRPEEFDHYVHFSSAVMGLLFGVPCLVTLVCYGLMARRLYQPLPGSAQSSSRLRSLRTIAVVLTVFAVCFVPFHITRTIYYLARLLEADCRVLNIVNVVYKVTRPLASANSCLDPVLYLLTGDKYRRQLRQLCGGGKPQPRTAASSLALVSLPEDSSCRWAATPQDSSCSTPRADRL
T2 sequence (P41231 whole entry): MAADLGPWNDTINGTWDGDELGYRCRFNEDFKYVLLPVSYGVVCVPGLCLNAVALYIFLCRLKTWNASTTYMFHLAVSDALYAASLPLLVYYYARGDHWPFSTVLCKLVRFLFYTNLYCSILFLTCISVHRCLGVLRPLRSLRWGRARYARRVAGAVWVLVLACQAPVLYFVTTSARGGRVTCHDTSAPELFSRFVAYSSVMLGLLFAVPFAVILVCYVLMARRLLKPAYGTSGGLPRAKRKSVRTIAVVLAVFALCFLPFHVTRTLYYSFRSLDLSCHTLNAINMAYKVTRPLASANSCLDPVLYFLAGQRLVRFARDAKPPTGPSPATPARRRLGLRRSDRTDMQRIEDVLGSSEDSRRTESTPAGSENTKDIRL

EC50 (P2Y6 receptor [1]; 1321N1 human astrocytoma cells expressing P2Y6, fluo-4 Ca2+): 12 nM | ability to elevate Ca2+ signals in P2Y6 receptor expressing cells on addition of P2Y6 antagonist MRS2578 (P2Y6 receptor [1]; with MRS2578): attenuated | elevating Ca2+ levels in P2Y2 receptor expressing cells (P2Y2 receptor): not effective | elevating Ca2+ levels in P2Y4 receptor expressing cells (P2Y4 receptor): not effective
Compound: O=c1ccn([C@@H]2O[C@H](COP(=O)(O)OP(=O)(O)O)[C@@H](O)[C@H]2O)c(=O)n1Cc1noc2ccccc12

Compound: O=C(Cn1c(=O)ccn([C@@H]2O[C@H](COP(=O)(O)OP(=O)(O)O)[C@@H](O)[C@H]2O)c1=O)c1ccccc1 [3-phenacyl-UDP]
total freezing percentage in context test (PSAPP mice [2]; chronic injection, two doses): increased | detrimental effects to the animal (PSAPP mice [3]): did not cause detrimental effects | selectivity for P2Y6 receptor (P2Y6 receptor [4]): > 500 fold | EC50 (P2Y6 receptor [4]; read-out: EC50, P2Y6 receptor agonist): 70 nM | effects on the efficacy endpoint at the higher dose (PSAPP mice [5]; 1 mg/kg, one week daily): smaller effects | β1-40 staining after treatment stopped (PSAPP mice [5]; 6 consecutive days i.p., then stopped for 2 weeks (6+2 weeks group), level lower than saline control): rebounded | immunoreactivity of β1-40 in both cortex and hippocampus (PSAPP mice [5]; i.p. for 4 and 6 consecutive days): significantly decreased

Compound: O=c1ccn([C@@H]2O[C@H](COP(=O)(O)OP(=O)(O)O)[C@@H](O)[C@H]2O)c(=O)[nH]1 [UDP, uridine diphosphate]
total freezing percentage (PSAPP mice [2]; acute i.c.v. treatment, ACSF control 18%±3%): 49%±5% | decrease in plaque load, hippocampus (PSAPP mice [6]; β1-42 antibody staining, hippocampus, acute i.c.v., P<0.05): 47% | decrease in plaque load, cortex (PSAPP mice [5]; β1-40 antibody staining, cortex, acute i.c.v., p<0.05): 60% | decrease in plaque load, hippocampus (PSAPP mice [5]; β1-40 antibody staining, hippocampus, acute i.c.v., p<0.01): 62% | decrease in plaque load, cortex (PSAPP mice [5]; β1-42 antibody staining, cortex, acute i.c.v., P<0.01): 48% | LTP at CA1 of hippocampus compared with ACSF (PSAPP mice [7]; HFS): significantly increased | field excitatory postsynaptic potential (fEPSP), last 15 min potentiation (PSAPP mice [7]; comparable to littermates): significant increase | reduction in plaque load (PSAPP mice [8]; [10]): 17.2% | reduction in the number of plaques (PSAPP mice [8]; [10]): 12.6% | reduction in cross-sectional area of individual identified plaques (PSAPP mice [8]; second imaging session, P<0.01): 18.2%

half-life [9]: 16.4 h | bioavailability (Oral bioavailability): 72.2%
Compound: O=c1ccn([C@@H]2O[C@H](CO)[C@H](O)C2O)c(=O)n1Cc1noc2ccccc12 (some centres unmarked) [compound 5]
Aβ40 plaque burden (PSAPP mice [6]; [11]): significantly reduced | size distribution of remaining plaques (PSAPP mice [5]; 10 ug/kg i.p. once per day for 7 days, PS1/APP mice): significantly reduced | Aβ42 plaque burden (PSAPP mice [5]; [11]): significantly reduced
